According to patent US12139520B2 (priority 2020, dated 2024):
Numbered stars: 1 amine (or outer) side, 2 acyl side, 3 side chain; on linkers, the order of the positions; unused ones are H or OH. Bridge positions count the residues as written; N and C are the ends. Square brackets hold non-standard residues; d marks the D form. Peptide text beside a SMILES is read from it. * marks the point of attachment. C20 diacid = O=C(O)CCCCCCCCCCCCCCCCCCC(=O)*; γGlu = O=C(O)[C@H](CCC(=O)[*:2])N[*:1]; Hyp = O=C(O)[C@@H]1C[C@@H](O)CN1

Tests used:
hAM1 receptor = hAM1 receptor (Homo sapiens, UniProt O60895+Q16602); assay: cAMP assay for in vitro receptor activation, hAM1-R; type: cell-based; conditions: cAMP assay, hAM1 receptor; read-out: hAM1R EC50
Procedure, shortened: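 A subcloned monoclonal line stably expressing hAM1 receptor is thawed and plated at 8000 cells/well. The assay buffer is DPBS with 0.05% casein and 0.5 mM IBMX, and receptor activation is followed by cAMP levels.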

hAMY3 receptor = biological target: T1, hAMY3 receptor (Homo sapiens, UniProt O60896+P30988); assay: cAMP assay for in vitro receptor activation, hAMY3-R; type: cell-based; conditions: cAMP assay, hAMY3 receptor; read-out: hAMY3R EC50
T1 sequence (P30988 25-474): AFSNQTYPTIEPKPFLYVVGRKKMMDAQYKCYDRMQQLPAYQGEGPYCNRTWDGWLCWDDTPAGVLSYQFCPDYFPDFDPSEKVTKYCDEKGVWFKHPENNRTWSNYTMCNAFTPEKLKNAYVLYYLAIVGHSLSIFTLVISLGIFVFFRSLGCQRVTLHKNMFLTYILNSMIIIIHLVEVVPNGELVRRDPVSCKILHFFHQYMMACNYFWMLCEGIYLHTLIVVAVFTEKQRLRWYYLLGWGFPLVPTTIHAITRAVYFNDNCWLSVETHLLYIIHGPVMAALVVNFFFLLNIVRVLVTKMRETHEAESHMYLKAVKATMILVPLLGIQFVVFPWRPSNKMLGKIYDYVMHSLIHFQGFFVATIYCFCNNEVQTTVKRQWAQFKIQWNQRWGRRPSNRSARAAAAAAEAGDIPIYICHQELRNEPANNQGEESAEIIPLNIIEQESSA
T1 sequence (O60896 24-148 partner): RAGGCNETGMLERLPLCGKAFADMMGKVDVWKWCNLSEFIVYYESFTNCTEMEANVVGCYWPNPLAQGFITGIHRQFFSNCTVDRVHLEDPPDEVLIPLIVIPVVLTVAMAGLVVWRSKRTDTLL
Procedure, shortened: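 Stable hAMY3 cells; DPBS + 0.05% casein + 0.5 mM IBMX; graded compound doses, 30 min, RT; cAMP via HTRF Gs kit, TR-FRET read at 1 h.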

hAM1 receptor, sequence (Q16602 23-461): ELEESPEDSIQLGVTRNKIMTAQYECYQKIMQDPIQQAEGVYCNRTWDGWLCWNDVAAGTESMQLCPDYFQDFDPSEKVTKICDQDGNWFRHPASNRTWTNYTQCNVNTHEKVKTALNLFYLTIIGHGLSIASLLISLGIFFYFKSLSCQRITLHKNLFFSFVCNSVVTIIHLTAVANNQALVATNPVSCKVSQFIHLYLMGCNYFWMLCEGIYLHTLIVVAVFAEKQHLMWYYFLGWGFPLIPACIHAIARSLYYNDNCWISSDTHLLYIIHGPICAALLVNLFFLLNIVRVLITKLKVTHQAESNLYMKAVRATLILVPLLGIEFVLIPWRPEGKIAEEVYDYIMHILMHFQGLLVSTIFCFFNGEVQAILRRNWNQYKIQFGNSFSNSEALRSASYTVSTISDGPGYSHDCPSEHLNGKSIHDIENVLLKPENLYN
hAM1 receptor, sequence (O60895 43-175 partner): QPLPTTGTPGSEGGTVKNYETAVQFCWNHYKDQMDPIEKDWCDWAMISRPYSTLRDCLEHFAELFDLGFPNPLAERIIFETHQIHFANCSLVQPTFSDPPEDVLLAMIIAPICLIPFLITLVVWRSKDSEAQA

Row | Compound | EC50 (hAM1 receptor) [nM] | EC50 (hAMY3 receptor) [nM]
1 | CC[C@H](C)[C@H](NC(=O)[C@H](CCC(N)=O)NC(=O)[C@H](CCC(=O)O)NC(=O)[C@H](C)NC(=O)[C@H](CC(C)C)NC(=O)[C@H](CCCNC(=N)N)NC(=O)[C@H](CCC(N)=O)NC(=O)[C@@H](NC(=O)[C@@H](NC(=O)[C@@H]1CSSC[C@H](NC(=O)[C@H](CCCCN)NC(=O)CC[C@H](NC(=O)CCCCCCCCCCCCCCCCCCC(=O)O)C(=O)O)C(=O)N[C@@H](CC(N)=O)C(=O)N[C@@H]([C@@H](C)O)C(=O)N[C@@H](C)C(=O)N[C@@H]([C@@H](C)O)C(=O)N1)[C@@H](C)O)C(C)C)C(=O)N[C@@H](Cc1ccc(O)cc1)C(=O)N[C@@H](CCC(N)=O)C(=O)N[C@@H](Cc1ccccc1)C(=O)N[C@H](C(=O)N[C@@H](CC(=O)O)C(=O)N[C@@H](CCCCN)C(=O)N[C@@H](CC(=O)O)C(=O)N[C@@H](CCCCN)C(=O)N[C@@H](CC(=O)O)C(=O)N[C@@H](CC(N)=O)C(=O)N[C@H](C(=O)N[C@@H](C)C(=O)N1CCC[C@H]1C(=O)N1CCC[C@H]1C(=O)N[C@H](C(=O)N[C@@H](CC(N)=O)C(=O)N[C@H](C(=O)NCC(=O)N[C@@H](CO)C(=O)N[C@@H](CC(N)=O)C(=O)NCC(=O)N1C[C@H](O)C[C@H]1C(N)=O)C(C)C)[C@@H](C)O)C(C)C)[C@@H](C)O [compound 51] ({C20 diacid-γGlu}-KCNTATCTVQRLAEQIYQFTDKDKDNVAPPTNVGSNG[Hyp]-NH2; disulfide 2-7) | > 5000 | 0.011
2 | CC[C@H](C)[C@H](NC(=O)[C@H](CCC(N)=O)NC(=O)[C@H](Cc1c[nH]cn1)NC(=O)[C@H](C)NC(=O)[C@H](CC(C)C)NC(=O)[C@H](CCCNC(=N)N)NC(=O)[C@H](CCC(N)=O)NC(=O)[C@@H](NC(=O)[C@@H](NC(=O)[C@@H]1CSSC[C@H](NC(=O)[C@@H](N)CCCCN)C(=O)N[C@@H](CC(N)=O)C(=O)N[C@@H]([C@@H](C)O)C(=O)N[C@@H](C)C(=O)N[C@@H]([C@@H](C)O)C(=O)N1)[C@@H](C)O)C(C)C)C(=O)N[C@@H](Cc1ccc(O)cc1)C(=O)N[C@@H](CCC(N)=O)C(=O)N[C@@H](Cc1ccccc1)C(=O)N[C@H](C(=O)N[C@@H](CC(=O)O)C(=O)N[C@@H](CCCCN)C(=O)N[C@@H](CC(=O)O)C(=O)N[C@@H](CCCCN)C(=O)N[C@@H](CC(=O)O)C(=O)N[C@@H](CC(N)=O)C(=O)N[C@H](C(=O)N[C@@H](C)C(=O)N[C@@H](C)C(=O)N1CCC[C@H]1C(=O)N[C@H](C(=O)N[C@@H](CC(N)=O)C(=O)N[C@H](C(=O)NCC(=O)N[C@@H](CO)C(=O)N[C@@H](CC(N)=O)C(=O)NCC(=O)N1C[C@H](O)C[C@H]1C(N)=O)C(C)C)[C@@H](C)O)C(C)C)[C@@H](C)O [compound 53] (H-KCNTATCTVQRLAHQIYQFTDKDKDNVAAPTNVGSNG[Hyp]-NH2; disulfide 2-7; N-terminus assumed) | > 5000 | 0.011
3 | CC[C@H](C)[C@H](NC(=O)[C@H](C)NC(=O)CNC(=O)[C@H](Cc1ccccc1)NC(=O)[C@H](CC(N)=O)NC(=O)[C@H](CC(N)=O)NC(=O)[C@H](CO)NC(=O)[C@H](CO)NC(=O)[C@H](Cc1c[nH]cn1)NC(=O)[C@@H](NC(=O)[C@H](CC(C)C)NC(=O)[C@H](Cc1ccccc1)NC(=O)[C@H](CC(N)=O)NC(=O)[C@H](C)NC(=O)[C@H](CC(C)C)NC(=O)[C@H](CCCNC(=N)N)NC(=O)[C@H](CCC(N)=O)NC(=O)[C@@H](NC(=O)[C@H](C)NC(=O)[C@@H]1CSSC[C@H](NC(=O)[C@@H](N)CCCCN)C(=O)N[C@@H](CC(N)=O)C(=O)N[C@@H]([C@@H](C)O)C(=O)N[C@@H](C)C(=O)N[C@@H]([C@@H](C)O)C(=O)N1)[C@@H](C)O)C(C)C)C(=O)N[C@@H](CC(C)C)C(=O)N[C@@H](CO)C(=O)N[C@@H](CO)C(=O)N[C@H](C(=O)N[C@@H](CCCCN)C(=O)N[C@H](C(=O)NCC(=O)N[C@@H](CO)C(=O)N[C@@H](CC(N)=O)C(=O)N[C@H](C(=O)N[C@@H](Cc1ccc(O)cc1)C(N)=O)[C@@H](C)O)C(C)C)[C@@H](C)O [compound 58] | > 5000 | 0.012
4 | CC[C@H](C)[C@H](NC(=O)[C@H](C)NC(=O)CNC(=O)[C@H](Cc1ccccc1)NC(=O)[C@H](CC(N)=O)NC(=O)[C@H](CC(N)=O)NC(=O)[C@H](CO)NC(=O)[C@H](CO)NC(=O)[C@H](Cc1c[nH]cn1)NC(=O)[C@@H](NC(=O)[C@H](CC(C)C)NC(=O)[C@H](Cc1ccccc1)NC(=O)[C@H](CC(N)=O)NC(=O)[C@H](C)NC(=O)[C@H](CC(C)C)NC(=O)[C@H](CCCNC(=N)N)NC(=O)[C@H](CCC(N)=O)NC(=O)[C@@H](NC(=O)[C@H](C)NC(=O)[C@@H]1CSSC[C@H](NC(=O)[C@@H](N)CCCCN)C(=O)N[C@@H](CC(N)=O)C(=O)N[C@@H]([C@@H](C)O)C(=O)N[C@@H](C)C(=O)N[C@@H]([C@@H](C)O)C(=O)N1)[C@@H](C)O)C(C)C)C(=O)N[C@@H](CC(C)C)C(=O)N1CCC[C@H]1C(=O)N[C@@H](CO)C(=O)N[C@H](C(=O)N[C@@H](CCCCN)C(=O)N[C@H](C(=O)NCC(=O)N[C@@H](CO)C(=O)N[C@@H](CC(N)=O)C(=O)NCC(=O)N[C@@H](Cc1ccc(O)cc1)C(N)=O)C(C)C)[C@@H](C)O [compound 59] (H-KCNTATCATQRLANFLVHSSNNFGAILPSTKVGSNGY-NH2; disulfide 2-7) | > 5000 | 0.012
5 | CC[C@H](C)[C@H](NC(=O)[C@H](CCC(N)=O)NC(=O)[C@H](Cc1c[nH]cn1)NC(=O)[C@H](C)NC(=O)[C@H](CC(C)C)NC(=O)[C@H](CCCNC(=N)N)NC(=O)[C@H](CCC(N)=O)NC(=O)[C@@H](NC(=O)[C@@H](NC(=O)[C@@H]1CSSC[C@H](NC(=O)[C@H](CCCCN)NC(=O)CC[C@H](NC(=O)CCCCCCCCCCCCCCCCCCC(=O)O)C(=O)O)C(=O)N[C@@H](CC(N)=O)C(=O)N[C@@H]([C@@H](C)O)C(=O)N[C@@H](C)C(=O)N[C@@H]([C@@H](C)O)C(=O)N1)[C@@H](C)O)C(C)C)C(=O)N[C@@H](C)C(=O)N[C@@H](CCC(N)=O)C(=O)N[C@@H](Cc1ccccc1)C(=O)N[C@H](C(=O)N[C@@H](CC(=O)O)C(=O)N[C@@H](CCCCN)C(=O)N[C@@H](CC(=O)O)C(=O)N[C@@H](CCCCN)C(=O)N[C@@H](CC(=O)O)C(=O)N[C@@H](CC(N)=O)C(=O)N[C@H](C(=O)N[C@@H](C)C(=O)N1CCC[C@H]1C(=O)N1CCC[C@H]1C(=O)N[C@H](C(=O)N[C@@H](CC(N)=O)C(=O)N[C@H](C(=O)NCC(=O)N[C@@H](CO)C(=O)N[C@@H](CC(N)=O)C(=O)NCC(=O)N1C[C@H](O)C[C@H]1C(N)=O)C(C)C)[C@@H](C)O)C(C)C)[C@@H](C)O [compound 61] ({C20 diacid-γGlu}-KCNTATCTVQRLAHQIAQFTDKDKDNVAPPTNVGSNG[Hyp]-NH2; disulfide 2-7) | > 5000 | 0.012
6 | CC[C@H](C)[C@H](NC(=O)[C@H](CCC(N)=O)NC(=O)[C@H](Cc1c[nH]cn1)NC(=O)[C@H](C)NC(=O)[C@H](CC(C)C)NC(=O)[C@H](CCCNC(=N)N)NC(=O)[C@H](CCC(N)=O)NC(=O)[C@@H](NC(=O)[C@@H](NC(=O)[C@@H]1CSSC[C@H](NC(=O)[C@H](CCCCN)NC(=O)CC[C@H](NC(=O)CCCCCCCCCCCCCCCCCCC(=O)O)C(=O)O)C(=O)N[C@@H](CC(N)=O)C(=O)N[C@@H]([C@@H](C)O)C(=O)N[C@@H](CO)C(=O)N[C@@H]([C@@H](C)O)C(=O)N1)[C@@H](C)O)C(C)C)C(=O)N[C@@H](C)C(=O)N[C@@H](CCC(N)=O)C(=O)N[C@@H](Cc1ccccc1)C(=O)N[C@H](C(=O)N[C@@H](CC(=O)O)C(=O)N[C@@H](CCCCN)C(=O)N[C@@H](CC(=O)O)C(=O)N[C@@H](CCCCN)C(=O)N[C@@H](CC(=O)O)C(=O)N[C@@H](CC(N)=O)C(=O)N[C@H](C(=O)N[C@@H](C)C(=O)N1CCC[C@H]1C(=O)N1CCC[C@H]1C(=O)N[C@H](C(=O)N[C@@H](CC(N)=O)C(=O)N[C@H](C(=O)NCC(=O)N[C@@H](CO)C(=O)N[C@@H](CC(N)=O)C(=O)NCC(=O)N1C[C@H](O)C[C@H]1C(N)=O)C(C)C)[C@@H](C)O)C(C)C)[C@@H](C)O [compound 62] ({C20 diacid-γGlu}-KCNTSTCTVQRLAHQIAQFTDKDKDNVAPPTNVGSNG[Hyp]-NH2; disulfide 2-7) | > 5000 | 0.012
